Experimental data from the NIST ThermoML archive (doi:10.1021/je060368x).

Columns and labels:
[1] = excess molar enthalpy (molar enthalpy of mixing); xn = mol fraction of the nth substance listed; conditions: 298.15 K, 101 kPa, Liquid, Flow calorimetry
[2] = xn = mol fraction of the nth substance listed; conditions: 298.15 K, 101 kPa, Liquid
[3] = heat capacity at constant pressure per volume; conditions: 298.15 K; 101.33 kPa; Liquid
[4] = heat capacity at constant pressure per volume; xn = mol fraction of the nth substance listed; conditions: 298.15 K, 101 kPa, Liquid

CCCCCCCCCCO [decan-1-ol] + C1CCCCC1
[1]
Conditions | excess molar enthalpy [kcal/mol]
x2 = 0.164 | 0.0694
x2 = 0.306 | 0.118
x2 = 0.431 | 0.148
x2 = 0.541 | 0.163
x2 = 0.638 | 0.166
x2 = 0.726 | 0.159
x2 = 0.805 | 0.144
x2 = 0.876 | 0.122
x2 = 0.941 | 0.0902

CCCCCCCCCCO [decan-1-ol] + C1CCOCC1
Conditions | excess molar enthalpy [kcal/mol] | mass density [kg/m3]
[1], x2 = 0.179 | 0.14 | –
[1], x2 = 0.329 | 0.229 | –
[1], x2 = 0.456 | 0.27 | –
[1], x2 = 0.566 | 0.282 | –
[1], x2 = 0.662 | 0.271 | –
[1], x2 = 0.746 | 0.243 | –
[1], x2 = 0.82 | 0.198 | –
[1], x2 = 0.887 | 0.142 | –
[1], x2 = 0.946 | 0.075 | –
[2], x2 = 0.1017 | – | 828.6
[2], x2 = 0.2006 | – | 831.38
[2], x2 = 0.2971 | – | 834.48
[2], x2 = 0.3995 | – | 838.2
[2], x2 = 0.4943 | – | 842.21
[2], x2 = 0.5984 | – | 847.35
[2], x2 = 0.6979 | – | 853.12
[2], x2 = 0.8001 | – | 860.13
[2], x2 = 0.9009 | – | 868.56

CCCCCCCO [heptan-1-ol] + C1CCCCC1
[1]
Conditions | excess molar enthalpy [kcal/mol]
x2 = 0.127 | 0.0456
x2 = 0.246 | 0.0867
x2 = 0.359 | 0.119
x2 = 0.466 | 0.142
x2 = 0.567 | 0.154
x2 = 0.662 | 0.155
x2 = 0.753 | 0.145
x2 = 0.839 | 0.126
x2 = 0.922 | 0.0956

CCCCCCCO [heptan-1-ol] + C1CCOCC1
[2]
Conditions | mass density [kg/m3]
x2 = 0.0514 | 820.57
x2 = 0.1047 | 822.8
x2 = 0.1988 | 826.97
x2 = 0.2987 | 831.67
x2 = 0.4018 | 836.94
x2 = 0.4976 | 842.18
x2 = 0.6005 | 848.37
x2 = 0.6985 | 854.74
x2 = 0.8002 | 861.99
x2 = 0.8989 | 869.83
x2 = 0.9487 | 874.13

CCCCCCCCCO [nonan-1-ol] + C1CCCCC1
[1]
Conditions | excess molar enthalpy [kcal/mol]
x2 = 0.152 | 0.0608
x2 = 0.287 | 0.107
x2 = 0.409 | 0.138
x2 = 0.518 | 0.156
x2 = 0.617 | 0.161
x2 = 0.707 | 0.157
x2 = 0.79 | 0.143
x2 = 0.866 | 0.12
x2 = 0.936 | 0.089

CCCCCCCCCO [nonan-1-ol] + C1CCOCC1
Conditions | excess molar enthalpy [kcal/mol] | mass density [kg/m3]
[1], x2 = 0.166 | 0.13 | –
[1], x2 = 0.309 | 0.211 | –
[1], x2 = 0.434 | 0.254 | –
[1], x2 = 0.544 | 0.27 | –
[1], x2 = 0.641 | 0.263 | –
[1], x2 = 0.729 | 0.238 | –
[1], x2 = 0.807 | 0.197 | –
[1], x2 = 0.877 | 0.143 | –
[1], x2 = 0.942 | 0.0767 | –
[2], x2 = 0.0965 | – | 826.81
[2], x2 = 0.1998 | – | 830.22
[2], x2 = 0.2989 | – | 833.75
[2], x2 = 0.3822 | – | 837.11
[2], x2 = 0.497 | – | 842.35
[2], x2 = 0.5969 | – | 847.63
[2], x2 = 0.6983 | – | 853.74
[2], x2 = 0.8 | – | 860.8
[2], x2 = 0.9002 | – | 869.06

CCCCCO [pentan-1-ol] + C1CCCCC1
[1]
Conditions | excess molar enthalpy [kcal/mol]
x2 = 0.1 | 0.0357
x2 = 0.2 | 0.0692
x2 = 0.3 | 0.0977
x2 = 0.4 | 0.125
x2 = 0.5 | 0.143
x2 = 0.6 | 0.152
x2 = 0.7 | 0.149
x2 = 0.8 | 0.133
x2 = 0.9 | 0.102

C1CCOCC1 [tetrahydropyran]
Conditions | heat capacity [J/K/m3]
[3] | 1519000

C1CCOCC1 [tetrahydropyran] + CCCCCCCCCC
[1]
Conditions | excess molar enthalpy [kcal/mol]
x1 = 0.182 | 0.0908
x1 = 0.333 | 0.143
x1 = 0.461 | 0.165
x1 = 0.571 | 0.17
x1 = 0.666 | 0.16
x1 = 0.75 | 0.141
x1 = 0.823 | 0.115
x1 = 0.889 | 0.0821
x1 = 0.947 | 0.0428

C1CCOCC1 [tetrahydropyran] + CCCCCCCCO
[2]
Conditions | mass density [kg/m3]
x1 = 0.0533 | 823.35
x1 = 0.0961 | 824.78
x1 = 0.198 | 828.58
x1 = 0.2967 | 832.64
x1 = 0.4014 | 837.39
x1 = 0.5 | 842.3
x1 = 0.599 | 847.86
x1 = 0.7005 | 854.23
x1 = 0.7999 | 861.27
x1 = 0.8989 | 869.3
x1 = 0.9504 | 873.97

C1CCOCC1 [tetrahydropyran] + CCCCCCO
Conditions | heat capacity, [4] [J/K/m3] | mass density, [2] [kg/m3]
x1 = 0.0523 | 1899000 | 817.49
x1 = 0.1033 | 1883000 | 820.05
x1 = 0.2029 | 1851000 | 825.28
x1 = 0.3021 | 1818000 | 830.74
x1 = 0.4033 | 1782000 | 836.58
x1 = 0.5007 | 1745000 | 842.45
x1 = 0.6013 | 1705000 | 848.93
x1 = 0.7015 | 1662000 | 855.69
x1 = 0.799 | 1616000 | 862.7
x1 = 0.8994 | 1567000 | 870.44
x1 = 0.9482 | 1543000 | 874.45

C1CCOCC1 [tetrahydropyran] + CCCCCO
Conditions | excess molar enthalpy, [1] [kcal/mol] | heat capacity, [4] [J/K/m3] | mass density, [2] [kg/m3]
x1 = 0.0486 | – | 1898000 | 813.55
x1 = 0.0968 | – | 1881000 | 816.55
x1 = 0.11 | 0.0784 | – | –
x1 = 0.2002 | – | 1846000 | 823.07
x1 = 0.217 | 0.144 | – | –
x1 = 0.2987 | – | 1811000 | 829.33
x1 = 0.323 | 0.19 | – | –
x1 = 0.3966 | – | 1776000 | 835.71
x1 = 0.426 | 0.219 | – | –
x1 = 0.4994 | – | 1738000 | 842.54
x1 = 0.526 | 0.232 | – | –
x1 = 0.5993 | – | 1698000 | 849.33
x1 = 0.625 | 0.228 | – | –
x1 = 0.6972 | – | 1657000 | 856.2
x1 = 0.722 | 0.206 | – | –
x1 = 0.8 | – | 1610000 | 863.59
x1 = 0.816 | 0.165 | – | –
x1 = 0.8983 | – | 1564000 | 870.89
x1 = 0.909 | 0.0978 | – | –
x1 = 0.9495 | – | 1540000 | 874.85

C1CCOCC1 [tetrahydropyran] + CCCCO
Conditions | heat capacity, [4] [J/K/m3] | mass density, [2] [kg/m3]
x1 = 0.0511 | 1899000 | 809.59
x1 = 0.0976 | 1882000 | 813.23
x1 = 0.1996 | 1847000 | 821.04
x1 = 0.301 | 1811000 | 828.64
x1 = 0.3987 | 1778000 | 835.87
x1 = 0.499 | 1739000 | 843.12
x1 = 0.598 | 1699000 | 850.26
x1 = 0.6994 | 1655000 | 857.46
x1 = 0.7998 | 1610000 | 864.53
x1 = 0.8998 | 1563000 | 871.67
x1 = 0.9501 | 1541000 | 875.22

C1CCOCC1 [tetrahydropyran] + CCCO
Conditions | heat capacity, [4] [J/K/m3] | mass density, [2] [kg/m3]
x1 = 0.0996 | 1875000 | 809.78
x1 = 0.1994 | 1838000 | 819.29
x1 = 0.2873 | 1807000 | 827.18
x1 = 0.3993 | 1766000 | 836.57
x1 = 0.4981 | 1728000 | 844.4
x1 = 0.6011 | 1687000 | 852.07
x1 = 0.7007 | 1646000 | 859.15
x1 = 0.7981 | 1604000 | 865.77
x1 = 0.9007 | 1560000 | 872.46
